Data reported in patent US20110008465A1, “SESQUITERPENE FORMULATIONS, KITS AND METHODS OF USE THEREOF” (priority 2007, published 2011).
Where a name gives a salt, the structure may show the parent alone.

Key:
[1] = test system: GL-261 (murine glioblastoma); assay: Chou and Talalay combination assay with beta-caryophyllene; format: cell-based; conditions: anticancer drug in combination with beta-caryophyllene; Chou and Talalay CI; 48 h
Procedure: (§1) Each solution was prepared fresh and use within 1 hour after preparation.
(§2) Cells were then harvested using trypsine-EDTA. Cells were counted using a hemocytometer and resuspended in DMEM+10% FBS medium.
(§3) Proliferation assay: Increasing concentrations of the anticancer agents and/or beta-caryophyllene were added to 96-well plate (100 μL per well). The final concentration of solvent in the culture medium was maintained below 0.5% (volume/volume) to avoid solvent toxicity.
(§4) The cells were incubated for 48 h at 37° C. and 5% CO2. Cytotoxicity was assessed using the resazurin reduction test (O'Brien et al., 2000). Fluorescence was measured on an automated 96-well Fluoroskan Ascent FI™ plate reader (Labsystems) using excitation and emission wavelengths of 530 nm and 590 nm, respectively. Resazurin was then removed.
(§5) Microplates were frozen at −20° C. overnight. Plates were thawed, a volume of 100 μl of 0.01% SDS in water was added to the wells, the plates were shaken at room temperature for 3 hours and then frozen once more at −20° C. overnight. […] Plates were shaken in the dark (at room temperature) for at least 2 hours, and fluorescence was measured on an automated 96-well Fluoroskan Ascent FI™ plate reader (Labsystems) using excitation and emission wavelengths of 360 nm and 460 nm, respectively.
(§6) Results were analyzed using the Chou and Talalay method (9) and may be interpreted as follow: Cl>1 represents an antagonist effect of beta-caryophyllene with the corresponding anticancer agent; Cl=1 represents an additive effect of beta-caryophyllene with the corresponding anticancer agent; Cl<1 represents a potentiating effect of beta-caryophyllene with the corresponding anticancer agent.

[2] = test system: B16 (murine melanoma); assay: as above; format: cell-based; conditions: anticancer drug in combination with beta-caryophyllene; Chou and Talalay CI; 48 h
Procedure: as §1, §2, §3, §4, §5, §6

[3] = test system: U-251 (human glioblastoma); assay: as above; format: cell-based; conditions: anticancer drug in combination with beta-caryophyllene; Chou and Talalay CI; 48 h
Procedure: as §1, §2, §3, §4, §5, §6

[4] = test system: MEL-2 (human melanoma); assay: as above; format: cell-based; conditions: anticancer drug in combination with beta-caryophyllene; Chou and Talalay CI; 48 h
Procedure: as §1, §2, §3, §4, §5, §6

[5] = test system: MCF-7 (breast cancer); assay: as above; format: cell-based, human; conditions: anticancer drug in combination with beta-caryophyllene; Chou and Talalay CI; 48 h
Procedure: as §1, §2, §3, §4, §5, §6

[6] = test system: A-549 (lung cancer); assay: as above; format: cell-based, human; conditions: anticancer drug in combination with beta-caryophyllene; Chou and Talalay CI; 48 h
Procedure: as §1, §2, §3, §4, §5, §6

[7] = test system: MDA-MB-231 (breast cancer); assay: as above; format: cell-based, human; conditions: anticancer drug in combination with beta-caryophyllene; Chou and Talalay CI; 48 h
Procedure: as §1, §2, §3, §4, §5, §6

[8] = test system: DLD-1 (colon cancer); assay: as above; format: cell-based, human; conditions: anticancer drug in combination with beta-caryophyllene; Chou and Talalay CI; 48 h
Procedure: as §1, §2, §3, §4, §5, §6

[9] = test system: PA-1 (ovary cancer); assay: as above; format: cell-based, human; conditions: anticancer drug in combination with beta-caryophyllene; Chou and Talalay CI; 48 h
Procedure: as §1, §2, §3, §4, §5, §6

[10] = test system: PC-3 (prostate cancer); assay: as above; format: cell-based, human; conditions: anticancer drug in combination with beta-caryophyllene; Chou and Talalay CI; 48 h
Procedure: as §1, §2, §3, §4, §5

[11] = test system: MCF-7; assay: Cytotoxicity of alpha-humulene and isocaryophyllene alone or combined with beta-caryophyllene; format: cell-based, human
Procedure: Combinations of beta-caryophyllene and two other antitumor agents, isocaryophyllene and α-humulene, were also tested as described above with some adaptations. 5×10^3 cells per well were allowed to adhere for 16 hours before treatment. The final concentration of solvent in the culture medium was maintained at 0.5% (volume/volume) to avoid toxicity. These combinations were tested on MCF-7.

[12] = combined with 10 μg/ml of beta-caryophyllene

Molecule	Potentiating activity GL-261 [1]	Potentiating activity B16 [2]	Potentiating activity U-251 [3]	Potentiating activity MEL-2 [4]	Potentiating activity MCF-7 [5]	Potentiating activity A-549 [6]	Potentiating activity MDA [7]	Potentiating activity DLD-1 [8]	Potentiating activity PA-1 [9]	Potentiating activity PC-3 [10]	IC50 [11, 12] [µg/mL]	IC50 ([11]; used alone) [µg/mL]
COc1cccc2c1C(=O)c1c(O)c3c(c(O)c1C2=O)C[C@@](O)(C(=O)CO)C[C@@H]3O[C@H]1C[C@H](N)[C@H](O)[C@H](C)O1 [Doxorubicin, doxorubicin hydrochloride]	(3) (Moderate: 0.5 < CI < 0.8 to IC50)	(1) (Very High: potentiating or additive activity to IC20 and CI < 0.6 to IC50)	(1) (Very High: potentiating or additive activity to IC20 and CI < 0.6 to IC50)	(1) (Very High: potentiating or additive activity to IC20 and CI < 0.6 to IC50)	(1) (Very High: CI equal or below 1 at IC20 and Cl below 0.6 to IC50)	(2) (High: CI below 0.5 at IC50)	(3) (Moderate: 0.5 < CI < 0.8 at IC50)	(4) (Weak: 0.8 < CI < 1 at IC50)	(1) (Very High: potentiating or additive activity to IC20 and CI < 0.6 to IC50)	(4) (Weak: 0.8 < CI < 1 to IC50)	–	–
COc1cc([C@@H]2c3cc4c(cc3[C@@H](O[C@@H]3O[C@@H]5CO[C@@H](C)O[C@H]5[C@H](O)[C@H]3O)[C@H]3COC(=O)[C@H]23)OCO4)cc(OC)c1O [Etoposide, etoposide]	(2) (High: CI < 0.5 to IC50)	(3) (Moderate: 0.5 < CI < 0.8 to IC50)	(3) (Moderate: 0.5 < CI < 0.8 to IC50)	(3) (Moderate: 0.5 < CI < 0.8 to IC50)	(1) (Very High: CI equal or below 1 at IC20 and Cl below 0.6 to IC50)	(4) (Weak: 0.8 < CI < 1 at IC50)	(1) (Very High: CI equal or below 1 at IC20 and Cl below 0.6 to IC50)	(3) (Moderate: 0.5 < CI < 0.8 at IC50)	(1) (Very High: potentiating or additive activity to IC20 and CI < 0.6 to IC50)	(6) (Antagonist effect: CI > 1)	–	–
CN(Cc1cnc2nc(N)nc(N)c2n1)c1ccc(C(=O)N[C@@H](CCC(=O)O)C(=O)O)cc1 [Methotrexate]	(6) (Antagonist effect: CI > 1)	(6) (Antagonist effect: CI > 1)	(2) (High: CI < 0.5 to IC50)	(1) (Very High: potentiating or additive activity to IC20 and CI < 0.6 to IC50)	(2) (High: CI below 0.5 at IC50)	(4) (Weak: 0.8 < CI < 1 at IC50)	(6) (Antagonist effect: CI > 1)	(4) (Weak: 0.8 < CI < 1 at IC50)	(1) (Very High: potentiating or additive activity to IC20 and CI < 0.6 to IC50)	(6) (Antagonist effect: CI > 1)	–	–
O=C1c2c(O)ccc(O)c2C(=O)c2c(NCCNCCO)ccc(NCCNCCO)c21 [Mitoxantrone]	(1) (Very High: potentiating or additive activity to IC20 and CI < 0.6 to IC50)	(3) (Moderate: 0.5 < CI < 0.8 to IC50)	(4) (Weak: 0.8 < CI < 1 to IC50)	(3) (Moderate: 0.5 < CI < 0.8 to IC50)	(1) (Very High: CI equal or below 1 at IC20 and Cl below 0.6 to IC50)	(5) (Additive effect: CI = 1)	(3) (Moderate: 0.5 < CI < 0.8 at IC50)	(5) (Additive effect: CI = 1)	(2) (High: CI < 0.5 to IC50)	(5) (Additive effect: CI = 1)	–	–
CC/C(=C(\c1ccccc1)c1ccc(OCCN(C)C)cc1)c1ccccc1 [Tamoxifen, tamoxifen citrate]	(2) (High: CI < 0.5 to IC50)	(3) (Moderate: 0.5 < CI < 0.8 to IC50)	(1) (Very High: potentiating or additive activity to IC20 and CI < 0.6 to IC50)	(1) (Very High: potentiating or additive activity to IC20 and CI < 0.6 to IC50)	(6) (Antagonist effect: CI > 1)	(3) (Moderate: 0.5 < CI < 0.8 at IC50)	(5) (Additive effect: CI = 1)	(2) (High: CI below 0.5 at IC50)	(2) (High: CI < 0.5 to IC50)	(2) (High: CI < 0.5 to IC50)	–	–
COc1cc2ncnc(Nc3cccc(Cl)c3)c2cc1OC [Tyrphostin, Tyrphostin AG 1478]	(3) (Moderate: 0.5 < CI < 0.8 to IC50)	(1) (Very High: potentiating or additive activity to IC20 and CI < 0.6 to IC50)	(1) (Very High: potentiating or additive activity to IC20 and CI < 0.6 to IC50)	(1) (Very High: potentiating or additive activity to IC20 and CI < 0.6 to IC50)	(1) (Very High: CI equal or below 1 at IC20 and Cl below 0.6 to IC50)	(3) (Moderate: 0.5 < CI < 0.8 at IC50)	(4) (Weak: 0.8 < CI < 1 at IC50)	(1) (Very High: CI equal or below 1 at IC20 and Cl below 0.6 to IC50)	(2) (High: CI < 0.5 to IC50)	(2) (High: CI < 0.5 to IC50)	–	–
C=C1CC/C=C(/C)CC[C@@H]2[C@@H]1CC2(C)C [isocaryophyllene]	–	–	–	–	–	–	–	–	–	–	16	30
C/C1=C\CC/C(C)=C/CC(C)(C)/C=C/C1 [∝-humulene, α-humulene]	–	–	–	–	–	–	–	–	–	–	15	25
vinblastine sulfate salt	(1) (Very High: potentiating or additive activity to IC20 and CI < 0.6 to IC50)	(1) (Very High: potentiating or additive activity to IC20 and CI < 0.6 to IC50)	(1) (Very High: potentiating or additive activity to IC20 and CI < 0.6 to IC50)	(1) (Very High: potentiating or additive activity to IC20 and CI < 0.6 to IC50)	(1) (Very High: CI equal or below 1 at IC20 and Cl below 0.6 to IC50)	(1) (Very High: CI equal or below 1 at IC20 and Cl below 0.6 to IC50)	(1) (Very High: CI equal or below 1 at IC20 and Cl below 0.6 to IC50)	(1) (Very High: CI equal or below 1 at IC20 and Cl below 0.6 to IC50)	(1) (Very High: potentiating or additive activity to IC20 and CI < 0.6 to IC50)	(3) (Moderate: 0.5 < CI < 0.8 to IC50)	–	–
vincristine sulfate salt	(1) (Very High: potentiating or additive activity to IC20 and CI < 0.6 to IC50)	(1) (Very High: potentiating or additive activity to IC20 and CI < 0.6 to IC50)	(1) (Very High: potentiating or additive activity to IC20 and CI < 0.6 to IC50)	(1) (Very High: potentiating or additive activity to IC20 and CI < 0.6 to IC50)	(1) (Very High: CI equal or below 1 at IC20 and Cl below 0.6 to IC50)	(2) (High: CI below 0.5 at IC50)	(3) (Moderate: 0.5 < CI < 0.8 at IC50)	(1) (Very High: CI equal or below 1 at IC20 and Cl below 0.6 to IC50)	(1) (Very High: potentiating or additive activity to IC20 and CI < 0.6 to IC50)	(1) (Very High: potentiating or additive activity to IC20 and CI < 0.6 to IC50)	–	–
